Measurements: ChEMBL document CHEMBL1201862, “PubChem BioAssay data set” (2004)
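Cells were grown in 96-well plates and exposed to each compound for 48 hours at five concentrations; endpoints were interpolated linearly between bracketing concentrations, or set to the highest concentration if not reached. GI50 marks 50% less growth.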 The source made the active and inactive calls. Rule as the data show it: active = GI50 up to about 1.1 µM and inactive = higher.

Tests used:
Experiment in all cases: NCI anticancer screen, dose series, 48 h
786-0 = system: 786-0
A498 = system: A498
ACHN = system: ACHN
CAKI-1 = system: CAKI-1
DU-145 = system: DU-145
HCC 2998 = system: HCC 2998
HCT-15 = system: HCT-15
HOP-92 = system: HOP-92
Hs-578T = system: Hs-578T
KM12 = system: KM12
LOX IMVI = system: LOX IMVI
NCI-H23 = system: NCI-H23
OVCAR-3 = system: OVCAR-3
OVCAR-4 = system: OVCAR-4
RPMI-8226 = system: RPMI-8226
UACC-257 = system: UACC-257
CCRF-CEM = system: CCRF-CEM
MCF7 = system: MCF7
UO-31 = system: UO-31
MOLT-4 = system: MOLT-4

Structure (SMILES)	GI50 (786-0)	GI50 (A498)	GI50 (ACHN)	GI50 (CAKI-1)	GI50 (DU-145)	GI50 (HCC 2998)	GI50 (HCT-15) [µM]	GI50 (HOP-92)	GI50 (Hs-578T)	GI50 (KM12)	GI50 (LOX IMVI)	GI50 (NCI-H23)	GI50 (OVCAR-3)	GI50 (OVCAR-4)	GI50 (RPMI-8226)	GI50 (UACC-257)	GI50 (CCRF-CEM)	GI50 (MCF7)	GI50 (UO-31)	GI50 (MOLT-4)
CC(C)(C)C=C=C(C(C)(C)C)P(=O)(O)O	> 100 µM (inactive)	> 100 µM (inactive)	> 100 µM (inactive)	> 100 µM (inactive)	> 100 µM (inactive)	> 100 µM (inactive)	> 100	> 100 µM (inactive)	> 100 µM (inactive)	> 100 µM (inactive)	> 100 µM (inactive)	> 100 µM (inactive)	> 100 µM (inactive)	> 100 µM (inactive)	< 0.01 µM (active)	> 100 µM (inactive)	–	–	–	–
O=c1c2ccccc2nnn1-c1n[nH]c2ccccc12	> 100 µM (inactive)	> 100 µM (inactive)	> 100 µM (inactive)	> 100 µM (inactive)	> 100 µM (inactive)	> 100 µM (inactive)	> 100	> 100 µM (inactive)	> 100 µM (inactive)	> 100 µM (inactive)	–	> 100 µM (inactive)	> 100 µM (inactive)	> 100 µM (inactive)	> 100 µM (inactive)	> 100 µM (inactive)	> 100 µM (inactive)	> 100 µM (inactive)	> 100 µM (inactive)	–
NC(=O)c1cc2ccc(O)cc2o/c1=N/NC(=O)c1ccccc1	79.4 µM (inactive)	40.5 µM (inactive)	58.1 µM (inactive)	36.6 µM (inactive)	–	33.4 µM (inactive)	79.3	> 100 µM (inactive)	81.3 µM (inactive)	77.1 µM (inactive)	47.8 µM (inactive)	89.9 µM (inactive)	80.5 µM (inactive)	> 100 µM (inactive)	77.3 µM (inactive)	> 100 µM (inactive)	48.6 µM (inactive)	> 100 µM (inactive)	67 µM (inactive)	35.1 µM (inactive)
Cc1cc(Br)c(N2C3=C(CC4=C2CCCC4=O)C(=O)CCC3)c(Br)c1	96.6 µM (inactive)	94.8 µM (inactive)	46.8 µM (inactive)	> 100 µM (inactive)	–	> 100 µM (inactive)	29.1	25.6 µM (inactive)	> 100 µM (inactive)	62.5 µM (inactive)	23.7 µM (inactive)	50.9 µM (inactive)	42.9 µM (inactive)	93.5 µM (inactive)	27.4 µM (inactive)	–	10.3 µM (inactive)	33.3 µM (inactive)	60.5 µM (inactive)	15.4 µM (inactive)
O=C(O)Cn1ccnc1[N+](=O)[O-]	> 100 µM (inactive)	> 100 µM (inactive)	> 100 µM (inactive)	> 100 µM (inactive)	> 100 µM (inactive)	> 100 µM (inactive)	> 100	> 100 µM (inactive)	> 100 µM (inactive)	> 100 µM (inactive)	–	> 100 µM (inactive)	> 100 µM (inactive)	> 100 µM (inactive)	> 100 µM (inactive)	> 100 µM (inactive)	> 100 µM (inactive)	> 100 µM (inactive)	> 100 µM (inactive)	> 100 µM (inactive)
O=C(CN1CCCC1)Nc1ccc2c(c1)C1Oc3ccccc3CC1CO2 (configuration not stated)	24.7 µM (inactive)	> 100 µM (inactive)	–	49.3 µM (inactive)	> 100 µM (inactive)	16.8 µM (inactive)	18.6	16.7 µM (inactive)	–	43.4 µM (inactive)	21.4 µM (inactive)	38.5 µM (inactive)	57.5 µM (inactive)	–	25.1 µM (inactive)	21.2 µM (inactive)	47.2 µM (inactive)	17.3 µM (inactive)	22.1 µM (inactive)	31.4 µM (inactive)
CC1=C(C(=O)OC(C)C)C(c2ccccc2[N+](=O)[O-])C(C(=O)OC(CO[N+](=O)[O-])CO[N+](=O)[O-])=C(C)N1 (configuration not stated)	3.62 µM (inactive)	–	3.21 µM (inactive)	3.32 µM (inactive)	5.68 µM (inactive)	5.83 µM (inactive)	3.08	–	3.36 µM (inactive)	3.75 µM (inactive)	2.68 µM (inactive)	4.27 µM (inactive)	6.49 µM (inactive)	2.12 µM (inactive)	2.98 µM (inactive)	3.85 µM (inactive)	2.09 µM (inactive)	3.55 µM (inactive)	3.56 µM (inactive)	1.46 µM (inactive)
COc1ccc(C23OCC(Cc4cc(OC)c(OC)cc42)C3COC(C)=O)cc1OC (configuration not stated)	> 100 µM (inactive)	> 100 µM (inactive)	> 100 µM (inactive)	> 100 µM (inactive)	> 100 µM (inactive)	> 100 µM (inactive)	> 100	> 100 µM (inactive)	–	> 100 µM (inactive)	> 100 µM (inactive)	56.1 µM (inactive)	> 100 µM (inactive)	> 100 µM (inactive)	> 100 µM (inactive)	–	–	> 100 µM (inactive)	> 100 µM (inactive)	> 100 µM (inactive)
